# Experimental data: PubChem BioAssay AID2060496 (Molecular Pharmacology Branch, DTP, NCI, 2025)
# Test system: 276233-004-R-J1-PDC complex spheroid viability
# Test: Anticancer human tumor 276233-004-R-J1-PDC patient-derived colon adenocarcinoma cell line growth inhibition [GQUAD]
# Conditions: for IC50: curve of first compound; for viability, T/C: stronger effect = lower value
# Summary of the method: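 Viability of tumor cells grown as complex spheroids with endothelial and stromal cells, exposed to drug combinations. Top concentration at or near clinical Cmax (else 10 microM), diluted in half-log increments.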
# [1] = second compound 0.0316 µM, first compound 0.0316 µM
# [2] = second compound 0.0316 µM, first compound 0.1 µM
# [3] = second compound 0.0316 µM, first compound 0.316 µM
# [4] = second compound 0.0316 µM, first compound 1 µM
# [5] = second compound 0.0316 µM, first compound 3.16 µM
# [6] = second compound 0.0316 µM, first compound 10 µM
# [7] = second compound 0.1 µM, first compound 0.0316 µM
# [8] = second compound 0.1 µM, first compound 0.1 µM
# [9] = second compound 0.1 µM, first compound 0.316 µM
# [10] = second compound 0.1 µM, first compound 1 µM
# [11] = second compound 0.1 µM, first compound 3.16 µM
# [12] = second compound 0.1 µM, first compound 10 µM
# [13] = second compound 0.316 µM, first compound 0.0316 µM
# [14] = second compound 0.316 µM, first compound 0.1 µM
# [15] = second compound 0.316 µM, first compound 0.316 µM
# [16] = second compound 0.316 µM, first compound 1 µM
# [17] = second compound 0.316 µM, first compound 3.16 µM
# [18] = second compound 0.316 µM, first compound 10 µM
# [19] = second compound 1 µM, first compound 0.0316 µM
# [20] = second compound 1 µM, first compound 0.1 µM
# [21] = second compound 1 µM, first compound 0.316 µM
# [22] = second compound 1 µM, first compound 1 µM
# [23] = second compound 1 µM, first compound 3.16 µM
# [24] = second compound 1 µM, first compound 10 µM
# [25] = second compound 3.16 µM, first compound 0.0316 µM
# [26] = second compound 3.16 µM, first compound 0.1 µM
# [27] = second compound 3.16 µM, first compound 0.316 µM
# [28] = second compound 3.16 µM, first compound 1 µM
# [29] = second compound 3.16 µM, first compound 3.16 µM
# [30] = second compound 3.16 µM, first compound 10 µM
# [31] = second compound 10 µM, first compound 0.0316 µM
# [32] = second compound 10 µM, first compound 0.1 µM
# [33] = second compound 10 µM, first compound 0.316 µM
# [34] = second compound 10 µM, first compound 1 µM
# [35] = second compound 10 µM, first compound 3.16 µM
# [36] = second compound 10 µM, first compound 10 µM
# 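Further: spheroids exposed to drugs for seven days.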
# 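Wherever viability, T/C is given: 100% = DMSO vehicle control viability.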
structure (smiles),measurement,setting,value
COc1cccc2c1C(=O)c1c(O)c3c(c(O)c1C2=O)CC(O)(C(=O)CO)CC3OC1CC(N)C(O)C(C)O1 (stereo not given) + Cc1cnc(CNC(=O)c2c(=O)c3ccc(N4CCCN(C)CC4)nc3n3c2sc2ccccc23)cn1,IC50,second compound 0.0316 µM,9690 nM
same,IC50,second compound 0.1 µM,6820 nM
same,IC50,second compound 0.316 µM,3530 nM
same,IC50,second compound 1 µM,2330 nM
same,IC50,second compound 3.16 µM,2160 nM
same,IC50,second compound 10 µM,2030 nM
same,"viability, T/C",[1],81.5%
same,"viability, T/C",[2],87.3%
same,"viability, T/C",[3],86%
same,"viability, T/C",[4],67.1%
same,"viability, T/C",[5],79.6%
same,"viability, T/C",[6],48.6%
same,"viability, T/C",[7],79%
same,"viability, T/C",[8],94.9%
same,"viability, T/C",[9],72.2%
same,"viability, T/C",[10],87.9%
same,"viability, T/C",[11],66.3%
same,"viability, T/C",[12],41.9%
same,"viability, T/C",[13],80.4%
same,"viability, T/C",[14],92.3%
same,"viability, T/C",[15],87.2%
same,"viability, T/C",[16],78.3%
same,"viability, T/C",[17],51.8%
same,"viability, T/C",[18],35%
same,"viability, T/C",[19],78%
same,"viability, T/C",[20],95.8%
same,"viability, T/C",[21],83.1%
same,"viability, T/C",[22],73%
same,"viability, T/C",[23],41.8%
same,"viability, T/C",[24],24.4%
same,"viability, T/C",[25],78.1%
same,"viability, T/C",[26],78.8%
same,"viability, T/C",[27],77.4%
same,"viability, T/C",[28],60.4%
same,"viability, T/C",[29],44.5%
same,"viability, T/C",[30],13%
same,"viability, T/C",[31],73.2%
same,"viability, T/C",[32],60.6%
same,"viability, T/C",[33],64.5%
same,"viability, T/C",[34],69%
same,"viability, T/C",[35],39.4%
same,"viability, T/C",[36],13.5%
O=C(c1cc(Cc2n[nH]c(=O)c3ccccc23)ccc1F)N1CCN(C(=O)C2CC2)CC1 + Cc1cnc(CNC(=O)c2c(=O)c3ccc(N4CCCN(C)CC4)nc3n3c2sc2ccccc23)cn1,IC50,second compound 0.0316 µM,> 10000 nM
same,IC50,second compound 0.1 µM,> 10000 nM
same,IC50,second compound 0.316 µM,> 10000 nM
same,IC50,second compound 1 µM,> 10000 nM
same,IC50,second compound 3.16 µM,> 10000 nM
same,IC50,second compound 10 µM,> 10000 nM
same,"viability, T/C",[1],80.1%
same,"viability, T/C",[2],85%
same,"viability, T/C",[3],89.3%
same,"viability, T/C",[4],79.3%
same,"viability, T/C",[5],90.8%
same,"viability, T/C",[6],91.6%
same,"viability, T/C",[7],81.1%
same,"viability, T/C",[8],92.8%
same,"viability, T/C",[9],82.2%
same,"viability, T/C",[10],83.8%
same,"viability, T/C",[11],85.5%
same,"viability, T/C",[12],83%
same,"viability, T/C",[13],96%
same,"viability, T/C",[14],91.4%
same,"viability, T/C",[15],83.4%
same,"viability, T/C",[16],81.8%
same,"viability, T/C",[17],96.7%
same,"viability, T/C",[18],73.5%
same,"viability, T/C",[19],69.9%
same,"viability, T/C",[20],77.1%
same,"viability, T/C",[21],91.2%
same,"viability, T/C",[22],75.5%
same,"viability, T/C",[23],83.8%
same,"viability, T/C",[24],67.3%
same,"viability, T/C",[25],76.9%
same,"viability, T/C",[26],70%
same,"viability, T/C",[27],61.1%
same,"viability, T/C",[28],68.4%
same,"viability, T/C",[29],77.2%
same,"viability, T/C",[30],72.7%
same,"viability, T/C",[31],74.5%
same,"viability, T/C",[32],68.1%
same,"viability, T/C",[33],80.2%
same,"viability, T/C",[34],62.5%
same,"viability, T/C",[35],77.8%
same,"viability, T/C",[36],53.2%
CCCS(=O)(=O)Nc1ccc(F)c(C(=O)c2c[nH]c3ncc(-c4ccc(Cl)cc4)cc23)c1F + Cc1cnc(CNC(=O)c2c(=O)c3ccc(N4CCCN(C)CC4)nc3n3c2sc2ccccc23)cn1,IC50,second compound 0.0316 µM,> 10000 nM
same,IC50,second compound 0.1 µM,> 10000 nM
same,IC50,second compound 0.316 µM,> 10000 nM
same,IC50,second compound 1 µM,> 10000 nM
same,IC50,second compound 3.16 µM,> 10000 nM
same,IC50,second compound 10 µM,> 10000 nM
same,"viability, T/C",[1],82.2%
same,"viability, T/C",[2],93.7%
same,"viability, T/C",[3],117%
same,"viability, T/C",[4],105%
same,"viability, T/C",[5],112%
same,"viability, T/C",[6],75.7%
same,"viability, T/C",[7],92%
same,"viability, T/C",[8],87.3%
same,"viability, T/C",[9],96.4%
same,"viability, T/C",[10],105%
same,"viability, T/C",[11],99.5%
same,"viability, T/C",[12],82.9%
same,"viability, T/C",[13],80.8%
same,"viability, T/C",[14],99.1%
same,"viability, T/C",[15],101%
same,"viability, T/C",[16],100%
same,"viability, T/C",[17],101%
same,"viability, T/C",[18],79.9%
same,"viability, T/C",[19],89.3%
same,"viability, T/C",[20],81.8%
same,"viability, T/C",[21],97.7%
same,"viability, T/C",[22],79.2%
same,"viability, T/C",[23],95%
same,"viability, T/C",[24],74.3%
same,"viability, T/C",[25],94.2%
same,"viability, T/C",[26],76.4%
same,"viability, T/C",[27],81.9%
same,"viability, T/C",[28],80.2%
same,"viability, T/C",[29],71.4%
same,"viability, T/C",[30],62.2%
same,"viability, T/C",[31],67.4%
same,"viability, T/C",[32],70%
same,"viability, T/C",[33],64.3%
same,"viability, T/C",[34],69.7%
same,"viability, T/C",[35],77.1%
same,"viability, T/C",[36],50.5%
COc1ncnc(C2CC2)c1-c1ncc2cnn(Cc3ccc(-c4nc(C(F)(F)F)cn4C(C)C)cc3)c2n1 + Cc1[nH]c2ccc(F)cc2c1-c1nc2c3cccnc3c3ncccc3c2[nH]1,IC50,second compound 0.0316 µM,> 10000 nM
same,IC50,second compound 0.1 µM,> 10000 nM
same,IC50,second compound 0.316 µM,> 10000 nM
same,IC50,second compound 1 µM,886 nM
same,IC50,second compound 3.16 µM,< 31.6 nM
same,IC50,second compound 10 µM,< 31.6 nM
same,"viability, T/C",[1],87.2%
same,"viability, T/C",[2],81.3%
same,"viability, T/C",[3],79.2%
same,"viability, T/C",[4],76.4%
same,"viability, T/C",[5],80.4%
same,"viability, T/C",[6],76.2%
same,"viability, T/C",[7],75.5%
same,"viability, T/C",[8],79.2%
same,"viability, T/C",[9],63.5%
same,"viability, T/C",[10],75.7%
same,"viability, T/C",[11],66.6%
same,"viability, T/C",[12],71%
same,"viability, T/C",[13],70%
same,"viability, T/C",[14],63.3%
same,"viability, T/C",[15],83.6%
same,"viability, T/C",[16],53.4%
same,"viability, T/C",[17],73%
same,"viability, T/C",[18],72%
same,"viability, T/C",[19],58%
same,"viability, T/C",[20],42.3%
same,"viability, T/C",[21],57.8%
same,"viability, T/C",[22],51.4%
same,"viability, T/C",[23],48.3%
same,"viability, T/C",[24],45.3%
same,"viability, T/C",[25],18.7%
same,"viability, T/C",[26],16.2%
same,"viability, T/C",[27],15.2%
same,"viability, T/C",[28],14.9%
same,"viability, T/C",[29],12.7%
same,"viability, T/C",[30],20.7%
same,"viability, T/C",[31],34.3%
same,"viability, T/C",[32],29.5%
same,"viability, T/C",[33],47.7%
same,"viability, T/C",[34],31.4%
same,"viability, T/C",[35],27.4%
same,"viability, T/C",[36],33.6%
CC1COCCN1c1cc(C2(O)CC3CCC(C2)O3)c2cnn(-c3ccn[nH]3)c2n1 (stereo not given) + CN(C)c1ccc(Nc2c3ccc(NC(=O)CCN4CCCC4)cc3nc3cc(NC(=O)CCN4CCCC4)ccc23)cc1,IC50,second compound 0.0316 µM,2840 nM
same,IC50,second compound 0.1 µM,2410 nM
same,IC50,second compound 0.316 µM,341 nM
same,IC50,second compound 1 µM,555 nM
same,IC50,second compound 3.16 µM,90.9 nM
same,IC50,second compound 10 µM,43.4 nM
same,"viability, T/C",[1],74.7%
same,"viability, T/C",[2],80.9%
same,"viability, T/C",[3],72.7%
same,"viability, T/C",[4],69%
same,"viability, T/C",[5],47.7%
same,"viability, T/C",[6],47.2%
same,"viability, T/C",[7],77.4%
same,"viability, T/C",[8],89.3%
same,"viability, T/C",[9],75%
same,"viability, T/C",[10],60.8%
same,"viability, T/C",[11],45.2%
same,"viability, T/C",[12],46%
same,"viability, T/C",[13],64.9%
same,"viability, T/C",[14],50.3%
same,"viability, T/C",[15],50.4%
same,"viability, T/C",[16],41.9%
same,"viability, T/C",[17],50.8%
same,"viability, T/C",[18],28.8%
same,"viability, T/C",[19],55.5%
same,"viability, T/C",[20],51.1%
same,"viability, T/C",[21],50.1%
same,"viability, T/C",[22],47.2%
same,"viability, T/C",[23],43.7%
same,"viability, T/C",[24],27.6%
same,"viability, T/C",[25],57.6%
same,"viability, T/C",[26],39.4%
same,"viability, T/C",[27],52.8%
same,"viability, T/C",[28],37.8%
same,"viability, T/C",[29],39.5%
same,"viability, T/C",[30],27.3%
same,"viability, T/C",[31],53.5%
same,"viability, T/C",[32],42.1%
same,"viability, T/C",[33],37.6%
same,"viability, T/C",[34],37.4%
same,"viability, T/C",[35],29.3%
same,"viability, T/C",[36],25.4%
